# Measurements from US20210283111A1, “Methods of Inhibiting Osteoclastogenesis and Osteoclast Activity” (vTv Therapeutics LLC, priority 2018, published 2021).
# Entries after “also recorded” stand apart in the source; their conditions may differ.
# Tests used:
# [1] = system: RANKL-mediated osteoclastogenesis in RAW264.7 cells; assay: Osteoclastogenesis assay: TRAP staining of RANKL-stimulated RAW264.7 cells; type: cell-based, Mouse; conditions: for No. of TRAP-positive multinucleated cells (Cells/Well): RANKL 100 ng/mL + compound 400 nM, 4 days, Control 0.00, RANKL alone 140.00; for effect on number of TRAP-positive multinucleated cells / RANKL-mediated osteoclastogenesis: RANKL 100 ng/mL, compound 400 nM
# Experimental: Cells were plated on 96-well plates (RAW264.7 cells: 10^3 cells/well) in triplicate in the presence or absence of recombinant RANKL (100 ng/ml) with or without the test compounds. After 4 days culture, cells were stained for tartrate-resistant acid phosphatase (TRAP) using an acid phosphatase kit (Sigma-Aldrich, St. Louis, Mo.). Dark red multinucleated cells (>3 nuclei) were counted as TRAP-positive multinucleated cells.
# [2] = system: osteoclast marker genes (Atp6v0d2, Trap, Mmp9, Cathepsin K, Dcstamp, and Oscar) in RANKL-stimulated RAW 264.7 cells; assay: Real-time RT-PCR of osteoclast marker gene expression; type: cell-based, Mouse; conditions: RAW264.7 cells, RANKL + compound 400 nM; for Dcstamp Fold Change from Control (Ave) / ATP6vd2 Fold Change from Control (Ave) / Cathepsin K Fold Change from Control (Ave) / Oscar Fold Change from Control (Ave) / Mmp9 Fold Change from Control (Ave) / TRAP Fold Change from Control (Ave): 4 days; for Dcstamp Fold Change from Control (Ave): Control 1.00, RANKL alone 4.32; for ATP6vd2 Fold Change from Control (Ave): Control 1.00, RANKL alone 4.69; for Cathepsin K Fold Change from Control (Ave): Control 1.00, RANKL alone 7.83; for Oscar Fold Change from Control (Ave): Control 1.00, RANKL alone 23.88; for Mmp9 Fold Change from Control (Ave): Control 1.00, RANKL alone 42.90; for TRAP Fold Change from Control (Ave): Control 1.00, RANKL alone 132.47
# Experimental: (§1) RNA was extracted from RAW264.7 cells using the GenElute mammalian total RNA Miniprep kit (Sigma-Aldrich, St. Louis, Mo.) with on-column genomic DNA digestion according to the manufacturer's instructions. For antioxidant gene expression analysis, RNA was extracted at 1 day after test compound treatment, and the gene expressions of HMOX1 and NQO1 was analyzed. For osteoclast marker gene expression analysis, RNA was extracted at 4 days after RANKL stimulation, and the gene expressions of Atp6v0d2, Cathepsin K, Matrix metalloproteinase 9, Trap, Dcstamp, and Oscar were analyzed. After measurement of the RNA concentration, isolated RNA (500 ng each) was reverse transcribed with iScript cDNA-Supermix (Bio-Rad Laboratories, Hercules, Calif.). Real-time RT-PCR was performed with SsoFast EvaGreen-Supermix (Bio-Rad Laboratories). PCR primers used in the experiments were from PrimerBank and were described in H. Kanzaki, et al. “The Keap1/Nrf2 protein axis plays a role in osteoclast differentiation by regulating intracellular reactive oxygen species signaling,” The Journal of Biological Chemistry 288(32) (2013) 23009-20. Fold changes of gene of interest were calculated by using the […] method with ribosomal protein S18 as reference gene. Data shown are representative of 3 independent experiments performed in triplicate.
# [3] = system: RANKL-stimulated RAW264.7 cells; assay: Resorption assay on bone resorption assay plate (calcium phosphate substrate); type: cell-based, Mouse; conditions: for Ave of Resorbed Area per Filed (%): RANKL 100 ng/mL + compound 400 nM, 7 days, Control 0.00, RANKL alone 1.14; for effect on resorption areas: RANKL + compound 400 nM
# Experimental: RAW264.7 cells were plated on synthesized calcium phosphate substrate (bone resorption assay plate; PG Research, Tokyo, Japan) and stimulated with RANKL in the presence or absence of test compounds. After 7 days of cultivation, cells were removed with bleach, and the calcium phosphate substrate was washed with distilled water and then dried. Photographs were taken, and the average of the resorbed area per field was calculated from 12 images of each sample, using ImageJ software (National Institutes of Health, Bethesda).
# [4] = system: HMOX1 and NQO1 in RAW264.7 cells; assay: Real-time RT-PCR of antioxidant gene expression; type: cell-based, Mouse; conditions: 400 nM
# Experimental: as §1
# [5] = system: RANKL-triggered intracellular ROS production in RAW264.7 cells; assay: Intracellular ROS detection by flow cytometry (BES-So-AM); type: cell-based, Mouse; conditions: pretreated 1 h, RANKL 6 h
# Experimental: Cells were pretreated with or without Compound HPP-4 for 1 h, stimulated with soluble RANKL for 6 h, washed with PBS, and collected. Cells were then incubated with fluorescent superoxide probe (BES-So-AM; Wako Pure Chemical) on ice. After washing, intracellular ROS was detected using an AccuriC6 flow cytometer (BD Biosciences, San Jose, Calif., USA). The viable monocyte/macrophage fraction was gated on a forward scatter/side scatter plot, and ROS levels were monitored in the FL-1 channel. Data shown are representative of 3 independent experiments performed in triplicated.
# [6] = system: LPS-mediated bone destruction in mice calvaria; assay: In vivo bone destruction model (LPS-induced calvarial bone destruction, μCT); design: species or system BALB/c mice
# Experimental: The animal experimental protocol was reviewed and approved by the Institutional Animal Care and Use committee, Tsurumi University (approval number; 28A030). All animals were treated ethically, and animal experiments were performed in compliance with the Regulations for Animal Experiments and Related Activities at Tsurumi University. The calvarial bone destruction mouse model, induced by repeated LPS injections. Twenty 7-week-old male BALB/c mice (Clea Japan, Tokyo, Japan) were used. Mice were randomly assigned to four groups (n=5 each): a Dimethyl sulfoxide (DMSO)-injected group (control group; 10 μl PBS+2 μl DMSO), a HPP-4-injected group (HPP-4 group; 10 μl PBS+2 μl of Cpd. HPP-4 2 μM), an LPS-induced bone resorption group (LPS group; 10 μl of 1 μg/μl LPS+2 μl DMSO) and an LPS-induced bone resorption and Cpd. HPP-4-injected group (LPS+HPP-4 group; 10 μl of 1 μg/μl LPS+2 μl of HPP-4 2 μM), Injections were performed under anaesthesia with a 30-gauge needle at a point on the midline of the skull located between the eyes on days 1, 3, 5, 7, and 9. On day 11, mice were sacrificed by cervical dislocation and cranial tissue samples were fixed overnight with 4% paraformaldehyde in PBS.
# Fixed cranial tissue samples were subsequently scanned with an X-ray microcomputed tomography […] system (inspeXio SMX-225CT; Shimadzu Corp., Kyoto, Japan). After reconstitution, the DICOM files were rendered into three-dimensional images using Pluto software. Percentage of resorbed area, calculated from the ratio of the number of pixels in the resorbed area in the cranial bone to the number of pixels in the total analyzed image of the cranial bone, was calculated with the ImageJ software. The region of interest was set between the fronto-parietal (coronal) suture and parietooccipital (lambdoidal) suture.
SMILES,No. of TRAP-positive multinucleated cells (Cells/Well) [1] [Cells/Well],effect on number of TRAP-positive multinucleated cells / RANKL-mediated osteoclastogenesis [1],RANKL-mediated upregulation of osteoclast marker genes [2],"difference from RANKL alone in Atp6v0d2, Mmp9, and Oscar expression [2]",Dcstamp Fold Change from Control (Ave) [2] [Fold Change from Control],ATP6vd2 Fold Change from Control (Ave) [2] [Fold Change from Control],Cathepsin K Fold Change from Control (Ave) [2] [Fold Change from Control],Oscar Fold Change from Control (Ave) [2] [Fold Change from Control],Mmp9 Fold Change from Control (Ave) [2] [Fold Change from Control],TRAP Fold Change from Control (Ave) [2] [Fold Change from Control],Ave of Resorbed Area per Filed (%) [3] [%],effect on resorption areas [3],"HMOX1 Fold Change from Control (Ave) ([4]; 1 day, Control 1.00) [Fold Change from Control]","NQO1 Fold Change from Control (Ave) ([4]; 1 day, Control 1.00) [Fold Change from Control]",expression of antioxidant enzymes NQO1 and HMOX1 ([4]; p<0.05 relative to control),RANKL-mediated increase in intracellular ROS (superoxide) [5],"LPS-mediated bone destruction ([6]; local injection of HPP-4, μCT)","Percent Resorbed (%), HPP-4 alone ([6]; local injection of HPP-4 without LPS on days 1, 3, 5, 7, 9, μCT day 11, Control 0.15) [%]","Percent Resorbed (%), LPS + HPP-4 ([6]; local injection of LPS + HPP-4 on days 1, 3, 5, 7, 9, μCT day 11, Control 0.15, LPS alone 4.27) [%]"
"COCCNC(=O)c1cnc2c(c1)nc(Nc1nc3ccc(OC(F)(F)F)cc3s1)n2C [HPP-1, 3-Methyl-2-(6-trifluoromethoxy-benzothiazol-2-ylamino)-3H-imidazo[4,5-b]pyridine-6-carboxylic acid (2-methoxy-ethyl)-amide]",139.33,no effect,weak suppression,no significant differences,3.33,3.52,5.96,20.22,39.73,106.62,1.21,–,–,–,–,–,–,–,–
"CN(C)C(=O)CNC(=O)c1ccc2c(c1)nc(Nc1nc3ccc(C(F)(F)F)cc3s1)n2C [HPP-2, 1-Methyl-2-(6-trifluoromethyl-benzothiazol-2-ylamino)-1H-benzimidazole-5-carboxylic acid dimethylcarbamoylmethyl-amide]",97.67,no effect,suppressed,–,2.55,3.09,4.42,10.03,24.02,73.81,0.78,–,–,–,–,–,–,–,–
"C[C@H](O)CNC(=O)c1ccc2c(c1)nc(Nc1nc3ccc(OC(F)(F)F)cc3s1)n2C [HPP-3, 1-Methyl-2-(6-trifluoromethoxy-benzothiazol-2-ylamino)-1H-benzoimidazole-5-carboxylic acid ((S)-2-hydroxy-propyl)-amide]",65.00,decreased,suppressed,–,2.14,2.36,3.31,6.45,23.89,59.23,0.22,reduced the resorption areas such that there was no significant difference from control,–,–,–,–,–,–,–
"Cn1c(Nc2nc3ccc(C(F)(F)F)cc3s2)nc2cc(C(=O)NCCOCCO)ccc21 [HPP-4, 1-Methyl-2-(6-trifluoromethyl-benzothiazol-2-ylamino)-1H-benzoimidazole-5-carboxylic acid [2-(2-hydroxy-ethoxy)-ethyl]-amide]",29.00,decreased the number of TPAP-positive multinucleated cells to that of control,suppressed,–,2.39,2.59,2.99,8.18,20.21,59.76,0.23,reduced the resorption areas such that there was no significant difference from control,1.62,2.67,increased,inhibited,ameliorated LPS-induced bone destruction; also recorded: significantly inhibited LPS-mediated bone destruction,0.42,1.84
